What is called IC50 is the concentration that inhibits the measured activity by half. Higher therefore signals a need for much substance. For orientation: AUC(0-inf) means total exposure, with the tail of the curve extrapolated. Broadly, the AUC(0-t) is exposure summed from dosing to a finite time, without extrapolation to infinity. Read a high AUC(0-t) as high exposure. As a reminder, the Cmax is the peak of the concentration-time curve. The Tmax is the time at which the peak concentration occurs. The bioavailability is dose-corrected exposure relative to a reference, in per cent. Read a high bioavailability as much systemic uptake. One may read the half-life as the time needed for the level to fall by half in the phase considered. High values mean slow decline, low ones rapid decline.

The target in data set [1] is JAK1 protein kinase (Homo sapiens, UniProt P23458). In words: biochemical. To be noted: 38 uM ATP, 90 min. As for the experimental part: In Vitro Activity Test of Jak1, Jak 2 and Jak 3 Kinase
Sequence of JAK1 protein kinase (P23458 whole entry): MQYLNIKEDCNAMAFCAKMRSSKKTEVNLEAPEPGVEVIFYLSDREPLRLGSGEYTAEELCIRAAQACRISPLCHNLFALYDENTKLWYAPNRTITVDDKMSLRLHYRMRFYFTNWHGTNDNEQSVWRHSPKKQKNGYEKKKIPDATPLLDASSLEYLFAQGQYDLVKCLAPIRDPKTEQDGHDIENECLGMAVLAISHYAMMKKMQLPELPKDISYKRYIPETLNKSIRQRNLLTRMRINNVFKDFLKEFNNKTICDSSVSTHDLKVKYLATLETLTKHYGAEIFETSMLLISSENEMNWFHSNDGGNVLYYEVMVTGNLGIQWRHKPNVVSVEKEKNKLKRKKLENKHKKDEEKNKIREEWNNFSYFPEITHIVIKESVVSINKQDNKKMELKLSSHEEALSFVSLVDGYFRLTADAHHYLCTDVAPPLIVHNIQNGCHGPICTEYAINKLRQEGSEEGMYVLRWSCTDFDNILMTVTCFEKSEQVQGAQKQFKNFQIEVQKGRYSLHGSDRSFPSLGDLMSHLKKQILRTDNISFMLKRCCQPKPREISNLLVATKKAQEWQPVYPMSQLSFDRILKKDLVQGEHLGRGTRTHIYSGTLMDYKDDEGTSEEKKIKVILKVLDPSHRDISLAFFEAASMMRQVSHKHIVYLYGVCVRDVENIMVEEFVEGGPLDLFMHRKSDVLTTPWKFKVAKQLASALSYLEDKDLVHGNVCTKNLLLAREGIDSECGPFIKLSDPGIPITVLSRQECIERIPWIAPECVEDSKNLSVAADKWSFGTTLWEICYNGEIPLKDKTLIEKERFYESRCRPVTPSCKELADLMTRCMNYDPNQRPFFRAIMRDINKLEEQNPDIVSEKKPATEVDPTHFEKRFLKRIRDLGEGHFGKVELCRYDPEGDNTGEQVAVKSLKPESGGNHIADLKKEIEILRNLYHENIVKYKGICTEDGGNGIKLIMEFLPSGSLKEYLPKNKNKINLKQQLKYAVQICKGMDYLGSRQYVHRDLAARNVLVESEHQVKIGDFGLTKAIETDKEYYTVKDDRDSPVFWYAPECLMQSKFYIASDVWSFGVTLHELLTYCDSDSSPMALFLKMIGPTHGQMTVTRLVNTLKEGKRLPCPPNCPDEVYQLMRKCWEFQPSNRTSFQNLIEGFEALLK
Recombinant humanized JAK1, JAK2 and JAK3 […] were all purchased from Life technology. LANCE Ultra ULight™-JAK-1(Tyr1023) peptide and LANCE Eu-W1024 Anti-phosphotyrosine (PT66) were both purchased from PerkinElmer. Envision (PerkinElmer) was used to read a plate.
Three dilution of a test compound was prepared, and 11 final concentrations were obtained: 10 uM to 0.17 nM. Each concentration had two repeat wells. The content of DMSO in a detection reaction was 1%.
2 nM JAK1 protein kinase, 50 nM LANCE Ultra ULight™-JAK-1(Tyr1023) peptide, 38 uM ATP, 50 mM HEPES (pH7.5), 10 mM MgCl2, 1 mM EGTA, 2 mM DTT, and 0.01% BRIJ-35. Detection plate was White Proxiplate 384-Plus plate (PerkinElmer), the reaction was conducted for 90 min at room temperature, and reaction system was 10 ul.
10 ul detection reagent was added into the reaction plate, wherein the final concentration of LANCE Eu-W1024 Anti-phosphotyrosine (PT66) was 2 nM, the final concentration of EDTA was 10 mM, incubation was conducted for 60 min at room temperature, and the plate was read by the Envision.
The reading was converted into a suppression ratio as follow equation: (%)=([…])/(Max−Min)*100%. IC50 data was detected by 4 parametric curve fitting (Model 205 in XLFIT5, iDBS), see Table 1.

Data set [2] deals with JAK2 protein kinase (Homo sapiens, UniProt O60674). The data set can be described thus: biochemical. As to conditions: 12 uM ATP, 60 min.
Sequence of JAK2 protein kinase (O60674 whole entry): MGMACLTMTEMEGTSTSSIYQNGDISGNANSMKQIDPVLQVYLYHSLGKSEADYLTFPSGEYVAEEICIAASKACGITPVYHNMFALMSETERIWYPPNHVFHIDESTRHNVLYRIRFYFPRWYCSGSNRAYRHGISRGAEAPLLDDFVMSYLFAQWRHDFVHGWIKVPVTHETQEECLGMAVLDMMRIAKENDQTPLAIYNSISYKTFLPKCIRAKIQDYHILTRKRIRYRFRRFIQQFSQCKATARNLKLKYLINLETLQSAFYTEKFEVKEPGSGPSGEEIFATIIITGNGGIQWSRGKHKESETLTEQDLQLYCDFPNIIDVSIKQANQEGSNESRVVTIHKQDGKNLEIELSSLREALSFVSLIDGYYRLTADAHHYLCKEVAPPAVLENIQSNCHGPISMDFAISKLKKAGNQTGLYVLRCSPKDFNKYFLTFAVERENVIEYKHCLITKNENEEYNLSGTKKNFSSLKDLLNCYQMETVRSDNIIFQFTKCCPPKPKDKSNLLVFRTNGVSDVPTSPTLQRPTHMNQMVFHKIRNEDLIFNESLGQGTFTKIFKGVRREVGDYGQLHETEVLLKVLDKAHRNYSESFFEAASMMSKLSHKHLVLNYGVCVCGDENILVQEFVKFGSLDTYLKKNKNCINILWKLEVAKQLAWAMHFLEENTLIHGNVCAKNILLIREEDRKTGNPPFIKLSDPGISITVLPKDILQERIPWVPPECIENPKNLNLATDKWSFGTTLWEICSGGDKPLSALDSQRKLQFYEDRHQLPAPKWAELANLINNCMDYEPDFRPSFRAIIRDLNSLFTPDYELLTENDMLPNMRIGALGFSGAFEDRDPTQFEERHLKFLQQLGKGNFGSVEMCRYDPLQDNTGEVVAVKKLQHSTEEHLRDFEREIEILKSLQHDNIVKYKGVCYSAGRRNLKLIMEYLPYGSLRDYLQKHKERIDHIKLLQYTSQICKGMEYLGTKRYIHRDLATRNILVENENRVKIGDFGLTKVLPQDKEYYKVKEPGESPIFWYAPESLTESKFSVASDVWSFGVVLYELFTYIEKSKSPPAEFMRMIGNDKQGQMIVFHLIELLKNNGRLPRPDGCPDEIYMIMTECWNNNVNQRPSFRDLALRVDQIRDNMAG
Excerpt: (§1) Recombinant humanized JAK1, JAK2 and JAK3 protease were all purchased from Life technology. LANCE Ultra ULight™-JAK-1(Tyr1023) peptide and LANCE Eu-W1024 Anti-phosphotyrosine (PT66) were both purchased from PerkinElmer. Envision (PerkinElmer) was used to read a plate.
(§2) The reading was converted into a suppression ratio as follow equation: (%)=(Min−Ratio)/(Max−Min)*100%.
For data set [3], the target named is T1, JAK3 (Homo sapiens, UniProt P52333).
T1 construct: purchased Life technology
T1 sequence (P52333 1-1124): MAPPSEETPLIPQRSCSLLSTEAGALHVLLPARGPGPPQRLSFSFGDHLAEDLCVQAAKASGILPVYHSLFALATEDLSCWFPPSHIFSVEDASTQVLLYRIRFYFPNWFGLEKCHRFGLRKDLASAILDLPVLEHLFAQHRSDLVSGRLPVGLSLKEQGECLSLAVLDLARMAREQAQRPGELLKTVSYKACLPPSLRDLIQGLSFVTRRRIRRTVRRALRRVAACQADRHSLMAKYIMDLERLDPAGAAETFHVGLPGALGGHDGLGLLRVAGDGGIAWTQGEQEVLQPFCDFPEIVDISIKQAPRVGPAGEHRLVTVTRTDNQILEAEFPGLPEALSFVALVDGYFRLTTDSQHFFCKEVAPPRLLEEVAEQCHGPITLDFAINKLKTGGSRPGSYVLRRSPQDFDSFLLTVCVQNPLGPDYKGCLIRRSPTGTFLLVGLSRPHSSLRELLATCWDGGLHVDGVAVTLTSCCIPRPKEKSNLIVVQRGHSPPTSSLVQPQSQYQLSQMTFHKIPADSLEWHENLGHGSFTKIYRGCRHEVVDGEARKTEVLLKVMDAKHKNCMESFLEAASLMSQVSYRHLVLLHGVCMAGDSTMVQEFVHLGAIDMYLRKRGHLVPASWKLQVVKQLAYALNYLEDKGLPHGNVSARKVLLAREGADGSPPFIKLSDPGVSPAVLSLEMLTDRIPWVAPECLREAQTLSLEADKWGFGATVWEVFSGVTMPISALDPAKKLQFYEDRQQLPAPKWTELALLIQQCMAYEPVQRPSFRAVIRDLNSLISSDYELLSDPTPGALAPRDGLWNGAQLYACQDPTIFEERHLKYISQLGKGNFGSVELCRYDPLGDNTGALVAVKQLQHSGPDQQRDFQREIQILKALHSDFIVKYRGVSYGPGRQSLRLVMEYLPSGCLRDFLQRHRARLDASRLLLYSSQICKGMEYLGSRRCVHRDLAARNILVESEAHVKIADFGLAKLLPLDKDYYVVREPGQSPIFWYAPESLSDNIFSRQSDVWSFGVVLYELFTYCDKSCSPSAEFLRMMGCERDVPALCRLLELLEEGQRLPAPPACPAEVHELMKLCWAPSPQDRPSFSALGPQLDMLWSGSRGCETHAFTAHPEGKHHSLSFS
The data set can be described thus: In vitro activity test of JAK3 kinase (LANCE Ultra TR-FRET).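 Further: recombinant human JAK3 phosphorylating ULight-JAK-1(Tyr1023) peptide at 4 µM ATP, with 1% DMSO, detected by Eu-anti-phosphotyrosine TR-FRET on Envision and converted to percent inhibition.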 It counts as biochemical. On the technique in general: In TR-FRET formats the signal depends on donor and acceptor labels being close together.
Description: as §1
0.05 nM protein kinase, 50 nM LANCE Ultra ULight™-JAK-1(Tyr1023) peptide, 4 uM ATP, 50 mM HEPES (pH7.5), 10 mM MgCl2, 1 mM EGTA, 2 mM DTT, and 0.01% BRIJ-35.
as §2

The nature of data set [4]: Pharmacokinetics (PK) test in mice. As to conditions: for AUC(0-inf) / AUC(0-t) / Vd / Cmax / Tmax / bioavailability / half-life: male, DBA/1, mouse, plasma; for Vd: read-out: Vdss; for Cmax / Tmax / bioavailability: oral; for half-life: caudal vein injection and gavage. It counts as in vivo, male DBA/1 mice.
Data set [5] in a line: Pharmacokinetics (PK) test in rats. It counts as in vivo. As to conditions: for AUC(0-inf) / AUC(0-t) / half-life / Vd / Cmax / Tmax / bioavailability: rat, plasma; for Vd: intravenous, read-out: Vdss; for Cmax / Tmax / bioavailability: oral.
In data set [6] the test system is arthritis model induced by adjuvant. The data set can be described thus: Pharmacodynamic test of an arthritis model induced by adjuvant on rats. To be noted: oral; for AUC (%): two consecutive weeks; for arthritis inhibitory activity and dose-effect relationship: 1, 3 and 10 mpk. The class given is in vivo, female Lewis rat.
Data set [7] concerns arthritis model induced by collagen. As to conditions: oral, two consecutive weeks.

Each structure is given as a SMILES string. Like-named read-outs stand apart in the source and are kept apart here.

Regarding `CN(c1ncnc2[nH]ccc12)N1CCC[C@@H](C(=O)NCC#N)C1` (single isomer, unassigned) [WX08, (R or S)—N-(cyanomethyl-1-[methyl(7H-pyrrolo[2,3-d]pyrimidin-4-yl)amino]piperidyl)-3-formamide], the IC50 in data set [1] is less than 10 nM. This compound came in with an IC50 in data set [2] of less than 10 nM. In data set [3], this compound showed an IC50 of less than 10 nM. Further, in data set [4], the C1 is 26.7 mL/min/kg; the “oral bioavailability and exposed quantity” value was “excellent good oral bioavailability and higher exposed quantity”; the AUC(0-inf) came to 3.03 µM·h; the AUC(0-t) worked out at 3 µM·h. In data set [4], the Cmax turned out to be 2440 nM, the Tmax came out at 15 min and the bioavailability was 50.7%. For the same compound, the Vd in data set [4] (intravenous) turned out to be 0.619 L/kg. The compound further gave a half-life in data set [4] (po) of 37.4 min. Besides, in data set [5], the C1 is listed as 27.1 mL/min/kg; the “oral bioavailability and exposed quantity” value was “excellent good oral bioavailability and higher exposed quantity”; the AUC(0-inf) was 6.5 µM·h; the AUC(0-t) worked out at 6.36 µM·h. In data set [5], the half-life is 56.9 min, the Vd was determined as 1.51 L/kg, the peak level (Cmax) was 2460 nM and the Tmax was determined as 30 min. In addition, the bioavailability in data set [5] is 61%. Also, the “AUC (%)” value in data set [6] (1 mg/kg) turned out to be 13.6%. Besides, the “AUC (%)” value in data set [6] (3 mg/kg) was 33.4%. The “AUC (%)” value in data set [6] (10 mg/kg) turned out to be 49.2%. For the same compound, the “arthritis inhibitory activity and dose-effect relationship” value in data set [6] is “good dose-effect relationship and generated arthritis inhibitory activity that was more effective than Filgotinib”.
As for `C[C@@H]1CCN(C(=O)CC#N)C[C@@H]1N(C)c1ncnc2[nH]ccc12` [Tofacitinib, reference compound], the “AUC (%)” value in data set [6] (1 mg/kg) worked out at 19.8%; in data set [6] (3 mg/kg) it was 41.6%; in data set [6] (10 mg/kg), 49.2%; in data set [7] (15 mg/kg) it was 34%.
`CN(c1ncnc2[nH]ccc12)N1CCCC(C(=O)NCC#N)C1` (stereo not shown) [WX07, N-(cyanomethyl)-1-[methyl(7H-pyrrolo[2,3-d]pyrimidin-4-yl)amino]piperidyl-3-formamide]: the IC50 in data set [1] is less than 10 nM. In data set [2], this compound displayed an IC50 of 10 to 100 nM. Further, the IC50 in data set [3] is less than 10 nM. Moreover, in data set [4], the C1 is 21.3 mL/min/kg; the “oral bioavailability and exposed quantity” value is “excellent good oral bioavailability and higher exposed quantity”; the AUC(0-inf) came out at 2.48 µM·h; the AUC(0-t) was found to be 2.33 µM·h. For the same compound, in data set [4], the highest level (Cmax) was 2290 nM, the Tmax worked out at 30 min and the bioavailability turned out to be 32.9%. For the same compound, in data set [4] (intravenous), the Vd worked out at 0.846 L/kg. For the same compound, the half-life in data set [4] (po) is 81 min. Further, in data set [5], the C1 was determined as 31.8 mL/min/kg; the “oral bioavailability and exposed quantity” value was “excellent good oral bioavailability and higher exposed quantity”; the AUC(0-inf) is 5.75 µM·h; the AUC(0-t) was 5.68 µM·h. Moreover, in data set [5], the half-life is 70.8 min, the Vd came out at 1.76 L/kg, the concentration peaked (Cmax) at 3250 nM and the Tmax is 20 min. The same compound returned a bioavailability in data set [5] of 68.6%. In addition, in data set [6] (1 mg/kg), the “AUC (%)” value is given as 1.5%. In addition, in data set [6] (3 mg/kg), the “AUC (%)” value turned out to be 20.4%. In addition, the “AUC (%)” value in data set [6] (10 mg/kg) was determined as 44.7%. For the same compound, the “arthritis inhibitory activity and dose-effect relationship” value in data set [6] was “good dose-effect relationship and arthritis inhibitory activity equivalent to Tofacitinib”. In data set [7] (15 mg/kg), the “AUC (%)” value is reported as 52.2%.
In the case of `CN(c1ncnc2[nH]ccc12)N1CCCC(C(=O)NCC(F)(F)F)C1` (stereo not shown) [WX04], the IC50 in data set [1] was less than 10 nM; in data set [2], 10 to 100 nM; in data set [3], 10 to 100 nM. For the same compound, the entries for the “AUC (%)” value in data set [7] (15 mg/kg) and in data set [7] (30 mg/kg) were 29% and 27%, respectively.
In the case of `O=C(Nc1nc2cccc(-c3ccc(CN4CCS(=O)(=O)CC4)cc3)n2n1)C1CC1` [Filgotinib, reference compound], the “AUC (%)” value in data set [6] (3 mg/kg) is reported as 7.9%; in data set [7] (15 mg/kg), 39.9%.
Compound `CN(c1ncnc2[nH]ccc12)N1CCC[C@@H](C(=O)NCC(F)(F)F)C1` (single isomer, unassigned) [WX05, (R or S)-1-[methyl(7H pyrrolo[2,3-d]pyrimidin-4-yl)amino]-N-(2,2,2-trifluoroethyl)piperidyl-3-formamide] came in with an IC50 in data set [1] of less than 10 nM. The IC50 in data set [2] is 10 to 100 nM. For the same compound, the IC50 in data set [3] was less than 10 nM. Also, in data set [4], the C1 is recorded as 57.2 mL/min/kg; the “oral bioavailability and exposed quantity” value was “excellent good oral bioavailability and higher exposed quantity”; the AUC(0-inf) stood at 0.667 µM·h; the AUC(0-t) amounted to 0.664 µM·h. In data set [4], the concentration peaked (Cmax) at 1230 nM, the Tmax stood at 15 min and the bioavailability came to 27%. Also, in data set [4] (intravenous), the half-life is 30.9 min and the Vd was found to be 0.959 L/kg. For the same compound, in data set [5], the C1 is recorded as 13.1 mL/min/kg; the “oral bioavailability and exposed quantity” value is “excellent good oral bioavailability and higher exposed quantity”; the AUC(0-inf) was determined as 11.5 µM·h; the AUC(0-t) came to 11.2 µM·h. In data set [5], the half-life was 91.8 min, the Vd came to 1.49 L/kg, the Cmax is 3690 nM and the Tmax was determined as 60 min. The same compound came in with a bioavailability in data set [5] of 64.4%. In addition, the “AUC (%)” value in data set [7] (15 mg/kg) stood at 31%.
With `CN(c1ncnc2[nH]ccc12)N1CCCC(C(=O)NCC(F)(F)F)C1` (single isomer, unassigned) [WX06, (S or R)-1-[methyl(7H pyrrolo[2,3-d]pyrimidin-4-yl)amino]-N-(2,2,2-trifluoroethyl)piperidyl-3-formamide], the IC50 was 100 to 1000 nM in data set [1], more than 1000 nM in data set [2] and more than 1000 nM in data set [3]. For the same compound, the “AUC (%)” value in data set [7] (15 mg/kg) is reported as 30.3%.
Consider `CN(c1ncnc2[nH]ccc12)N1CCC(C(=O)NCC#N)CC1` [WX20, N-(cyanomethyl)-1-(methyl(7H-pyrrolo[2,3-d]pyrimidin-4-yl)amino)piperidyl-4-formamide], for which the values for the half-maximal inhibitory concentration (IC50) in data set [1], in data set [2] and in data set [3] were 10 to 100 nM, 100 to 1000 nM and 10 to 100 nM, respectively.
As to `CN(c1ncnc2[nH]ccc12)N1CCCC(C(=O)NCC(F)F)C1` (stereo not shown) [WX47, 1-[methyl(7H-pyrrole[2,3-d]pyrimidine-4-)amino]-N-(2,2-difluoroethyl)piperidyl-3-formamide], the IC50 in data set [1] is not above 10 nM; in data set [2] it was 10 to 100 nM; in data set [3] it was less than 10 nM.
Regarding `CN(c1ncnc2[nH]ccc12)N1CCC[C@@H](C(=O)NCC(F)(F)C(F)(F)F)C1` (single isomer, unassigned) [WX51, (3R or 3S)-1-[methyl(7H-pyrrole[2,3-d]pyrimidine-4-)amino]-N-(2,2,3,3,3-pentafluoropropyl)piperidyl-3-formamide], the IC50 in data set [1], in data set [2] and in data set [3] was more than 1000 nM throughout.
